Columns and labels:
Format in all cases: in vivo
[1] = Ex.4 therapeutic HIE rat model: body weight; details: PND14
Experimental: To study the therapeutic effect of estetrol, newborn rat pups were assigned to one of the following 6 groups at postnatal day 7: sham group (n=29), vehicle group (n=20), 1 mg/kg E4 group (n=16), 5 mg/kg E4 group (n=19), 10 mg/kg day E4 (n=17) and 50 mg/kg day E4 group (n=15). At postnatal day 7 animals were anesthetized with isoflurane (induction, 3.0%; maintenance, 1.5%), and the rat pups from vehicle and E4 groups passed through surgery encompassing left common carotid artery double ligation and cut. After surgery, the pups were returned to their dams and allowed to recover for 1 hour. The pups were then placed in a humidified hypoxic in vivo cabinet (CoyLab). Hypoxia was produced by the inhalation of 11%-8% of oxygen balanced by nitrogen at decreased concentration of oxygen for 20 minutes, followed by inhalation of 8% oxygen and 92% nitrogen at constant concentration for 35 minutes. All the manipulations were performed at 37° C.
Upon retrieval from the hypoxia chamber the rat pups were injected intraperitoneally either by vehicle (vehicle group) or by E4 (1 mg/kg, 5 mg/kg, 10 mg/kg or 50 mg/kg) in accordance to the group assignment. The animals from the sham group went through similar procedures but proceeded neither left common carotid artery ligation and cut followed by hypoxia nor vehicle or estetrol administration. Rat pups recovered with their dams until being sacrificed at postnatal day 14.
To evaluate the post-operative well-being of rat pups due to the performed manipulations and estetrol treatment, the post-operative body weight was measured at postnatal days 7 and 14.

[2] = test system: myelin-related mRNA (CNP, MAG, MBP); assay: Ex.6 IL-1β induced diffuse white matter injury mouse model: myelin gene expression at P10 (qRT-PCR)
Experimental: Experimental protocols were approved by the institutional guidelines of the Institut National de la Santé et de la Recherche Scientifique (Inserm, France), and met the guidelines for the United States Public Health Service's Policy on Humane Care and Use of Laboratory Animals (NIH, Bethesda, Md., USA). Experiments were performed using OF1 strain mice purchased from Charles River (L'Arbresle, France) and born in our animal facility. Animals were housed under a 12 h light-dark cycle, had access to food and water ad libitum. Sex was determined at birth and confirmed at sacrifice. To avoid any potential variability linked to sex to differences. only male pups were used. Mice received twice a day from P1 to P4 and once on P5 a 5 μl intraperitoneal injection containing either PBS alone (sham group) or 10 μg/kg/dose recombinant mouse IL-1β in PBS. Vehicle group received only IL-1β injections while 10 μg E4 (5 mg/kg) or 20 μg E4 (10 mg/kg) was added to IL-1β once a day from P1 to P5 for E4 treated groups. Pups were sacrificed 3 hours after the first intraperitoneal injection at P1, 3 hours after last treatment at P5 or at P10 by intracardiac perfusion with NaCl 0.9% after anaesthesia by inhaled isoflurane.
At P10, anterior cortex and underneath white matter were collected and immediately frozen in nitrogen liquid, before storage at −80° C. for study of myelin-related mRNA expression.
Preparation of samples for quantitative reverse-transcriptase polymerase-chain reaction (qRT-PCR), primer design, and PCR protocol, were similar to that previously described (Favrais et al., 2011; Chhor et al., 2013). Briefly, RNA extraction was performed by with RNeasy mini kit according to the manufacturer's instructions (Qiagen, Courtaboeuf, France). RNA quality and concentration were assessed by spectrophotometry with the Nanodrop™ apparatus (Thermoscientific, Wilmington, Del., USA). Total RNA (0.5-1 μg) was subjected to reverse transcription using the iScript™ cDNA synthesis kit (Bio-Rad, Marnes-la-Coquette, France). qPCR was using SYBR Green Supermix (Bio-Rad). The relative expression of genes of interest (GOI) were expressed relative to expression of the reference gene, ribosomal protein L13a (Rpl13a) for CD11b+ cells and Glyceraldehyde 3-phosphate dehydrogenase (GAPDH) for O4+ cells and anterior brains based on reference gene suitability testing. Analyses were performed with the Biorad CFX manager 2.1 software. The relative quantities are expressed as the specific ratio between the gene of interest and Rpl13 or GAPDH. The data are presented as relative mRNA units with respect to control values (expressed as a fold-difference with respect to the mean of sham values).

doublecortin (DCX) = assay: Ex.3 neuroprotective HIE rat model: doublecortin staining
Experimental: The sections were heated in 10 mmol/L citrate buffer (pH 6.0) at 100° C. for 10 minutes. Endogenous peroxidase activity was blocked with 3% hydrogen peroxide for 10 minutes and after a second blocking with 5% normal goat serum, the sections were incubated with anti-doublecortin (DCX) antibody, diluted 1:1000 (rabbit polyclonal antibody; Abcam, Cambridge, UK) and anti-vascular endothelial growth factor (VEGF) antibody, diluted 1:100 (mouse monoclonal antibody; Abcam, Cambridge, UK) overnight at 4° C. After rinsing, Alexa Fluor® goat anti-rabbit, diluted 1:1000 and Alexa Fluor® goat anti-mouse, diluted 1:1000 (Invitrogen Inc., Ghent, Belgium) were added and sections were incubated 1 h at room temperature. Mounting medium containing 4′,6-diamidino-2-phenylindole (DAPI) for fluorescent studies was used (Vector Laboratories). Samples were analyzed with the aid of a microscope (Olympus Vanox AHBT3, Olympus), and the ImageJ software (NIH). The percentage of positively stained cells was quantified as a sum of positively stained either DCX or VEGF cells divided by the total number of DAPI positive cells expressed in percentage.
Newborn rat pups were assigned to one of the following 6 groups from postnatal day 4: Sham group (n=24), Vehicle group (n=14), E4 1 mg/kg/per day group (n=11), E4 5 mg/kg/per day group (n=14), E4 10 mg/kg/per day group (n=14), or E4 50 mg/kg/per day group (n=19). From postnatal day 4, rat pups were intraperitoneally injected either vehicle (Vehicle group) or E4 (1, 5, 10, or 50 mg/kg/per day in accordance to the E4 group assignment) or neither vehicle nor E4 (Sham group). At day 7, 30 minutes after last injection, animals were anesthetized with isoflurane (induction, 3.0%; maintenance, 1.5%), and the rat pups from Vehicle and E4 groups passed through surgery encompassing left common carotid artery double ligation and cut. After the procedure, the pups were returned to their dams and were allowed to recover for 1 hour. The pups were then placed in the humidified hypoxic in vivo cabinet (CoyLab, Grass Lake, Mich., USA). Hypoxia was produced by the inhalation of 11%-8% of oxygen balanced by nitrogen at decreased concentration of oxygen for 20 minutes, followed by inhalation of 8% oxygen and 92% nitrogen at constant concentration for 35 minutes. All the manipulations were performed at 37° C. The Sham group went through similar procedures without left common carotid artery ligation followed by hypoxia nor injection. Rat pups recovered with their dams and reared normally until being sacrificed at postnatal day 14.

Structure (SMILES): C[C@]12CC[C@@H]3c4ccc(O)cc4CC[C@H]3[C@@H]1[C@@H](O)[C@@H](O)[C@@H]2O [E4, 1,3,5(10)-estratrien-3,15α,16α,17β-tetrol]
- body weight ([1]; 1 mg/kg E4 single ip dose after HI, vs vehicle): significantly higher body weight than the vehicle group
- body weight ([1]; 5 mg/kg E4 single ip dose after HI, vs sham): Sham operated animals showed significantly higher body weight
- body weight ([1]; 5 mg/kg E4 single ip dose after HI, vs vehicle): significantly higher body weight than the vehicle group
- body weight ([1]; 10 mg/kg E4 single ip dose after HI, vs vehicle): significantly higher body weight than the vehicle group
- body weight ([1]; 50 mg/kg E4 single ip dose after HI, vs vehicle): significantly higher body weight than the vehicle group
- CNP mRNA ([2]; E4 5 mg/kg, vs IL-1β): significant increase
- MAG mRNA ([2]; E4 5 mg/kg, vs IL-1β): significant increase
- MBP expression ([2]; E4 5 mg/kg, vs control group): not statistically different
- MBP expression, increase ([2]; E4 5 mg/kg, vs vehicle group (p=0.11)): not significant
- expression of myelin genes (MAG, MBP, CNP) ([2]; IL-1β+E4 10 mg/kg, vs IL-1β): No difference
- percentage of DCX positively stained cells (doublecortin (DCX); 5 mg/kg E4 ip PND4-7 before HI, CA1): 35.2±3.309%
- percentage of DCX positively stained cells (doublecortin (DCX); 5 mg/kg E4 ip PND4-7 before HI, CA2/CA3): 30.3±3.7%
- percentage of DCX positively stained cells (doublecortin (DCX); 10 mg/kg E4 ip PND4-7 before HI, CA1): 34.1±6.664%
- percentage of DCX positively stained cells (doublecortin (DCX); 10 mg/kg E4 ip PND4-7 before HI, DG): 55.8±5.658%
- percentage of DCX positively stained cells (doublecortin (DCX); 10 mg/kg E4 ip PND4-7 before HI, cortex): 52.1±7.762%

— US9808470B2, “Estrogenic components for use in the treatment of neurological disorders” (UNIVERSITE DE LIEGE, priority 2012, dated 2017)
